Results: patent publication EP1311531B1, “STEROID DERIVED ANTIBIOTICS” (Brigham Young University, priority 2000, dated 2002)
≈ marks a conversion by molar mass, not a printed value. Where two headings read alike, the source gives them in different places. Values belong to the compound of their own block, whether it stands above or below them.

Key:
[1] = tested on: Staphylococcus aureus ATCC 25923; assay: MIC and MBC measurement; type: cell-based; settings: ATCC25923, Table 10, Staphylococcus aureus ATCC 25923; for MIC: read-out: MIC
From the text: (§1) General: Microorganisms. Reference strains were purchased from the American Type Culture Collection (Rockville, MD) or Bactrol disks from Difeo Laboratories (Detroit, MI). The following specific ATCC strains were used: 10798 Escherichia coli, 25922 Escherichia coli, 13883 Klebsiella pneumoniae, 27853 Pseudomonas aeruginosa, 14028 Salmonella typhimurium, 29212 Enterococcus faecalis, 25923 Staphylococcus aureus, 19615 Streptococcus pyogenes, and 90028 Candida albicans. Bacterial strains were maintained on Mueller-Hinton agar plates, and Candida albicans was maintained on Sabouraud Dextrose agar plates.
(§2) Tryptic soy broth (TSB) was made by dissolving 27.5 grams of tryptic soy broth without dextrose (DIFCO Laboratories) in 1 liter of deionized water and sterilizing at 121 °C for 15 minutes. Solid agar (TSA) plates were made by dissolving 6.4 grams of tryptic soy broth and 12 grams of agar (purified grade, Fischer Scientific) in 800 mL of deionized water and sterilizing at 121 °C for 20 minutes. Aliquots (20 mL) of the homogeneous solution were then poured in sterile plastic petri dishes (100 x 15 mm, Fisher Scientific). Solutions of compounds were made by dissolving the HCl salt of the respective compound into an appropriate amount of deionized and sterilized water followed by microfiltration.
(§3) Aliquots of 1 mL of the suspension were added to test tubes containing 1 mL TSB and incrementally varied concentrations of cholic acid derivatives and/or erythromycin or novobiocin. In the sensitization experiments, erythromycin or novobiocin were added 15 minutes later than the cholic acid derivatives. The samples were subjected to stationary incubation at 37°C for 24 hours. Sample turbidity was determined by measuring absorption at 760 nm (HP 8453 UV-Visible Chemstation, Hewlett Packard). Additionally, an alliquot from each of the samples showing no measurable turbidity was subcultured on TSA plates (alliquots were diluted to provide fewer than 300 CFU). Colonies that grew on the subculture after overnight incubation were counted and the number of CFU/mL in the samples were calculated. The calculated values were compared to the number of CFU/mL in the original inoculum. […]

[2] = tested on: Escherichia coli ATCC 25922; assay: MIC and MBC measurement; type: cell-based; settings: Escherichia coli; for MIC: read-out: MIC
From the text: as §1, §2, §3

[3] = tested on: Salmonella typhimurium ATCC 14028; assay: Sensitization to erythromycin, novobiocin or rifampicin (permeabilization, FIC); type: cell-based; settings: Table 13; with rifampicin (order of b151); Salmonella typhimurium ATCC 14028^b (footnote b not given)
[4] = tested on: E. coli (ATCC 10798); assay: Sensitization to erythromycin or novobiocin (outer membrane permeabilization, FIC); type: cell-based, Escherichia coli; settings: for MBC: Escherichia coli; for MBC / concentration required to lower the MIC of erythromycin from 70 µg/mL to 1 µg/mL: E. coli (ATCC 10798); for concentration required to lower the MIC of erythromycin from 70 µg/mL to 1 µg/mL: Table 2; for (a) Concentration required to lower the MIC of erythromycin from 70 to 1 µg/mL / (b) MBC with 1 µg/mL erythromycin / (d) Concentration required to lower the MIC of novobiocin from >500 to 1 µg/mL / FIC^c (FIC values with erythromycin) / FIC^c (FIC values with novobiocin): Table 9, Escherichia coli (ATCC 10798)
Experimental: FICs can be performed by checkerboard titrations of compounds in one dimension of a microtiter plate, and of antibiotics in the other dimension, for example. The FIC is calculated by looking at the impact of one antibiotic on the MIC of the other and vice versa. […] Preferably, an FIC of less than 0.5 is obtained for synergism. As used herein, FIC can be determined as follows: FIC = (MIC(compound in combination))/(MIC(compound alone)) + (MIC(antibiotic in combination))/(MIC(antibiotic alone)) [formula]
Aliquots of 1 mL of the suspension were added to test tubes containing 1 mL TSB and incrementally varied concentrations of cholic acid derivatives and/or erythromycin or novobiocin. In the sensitization experiments, erythromycin or novobiocin were added 15 minutes later than the cholic acid derivatives. The samples were subjected to stationary incubation at 37°C for 24 hours. Sample turbidity was determined by measuring absorption at 760 nm (HP 8453 UV-Visible Chemstation, Hewlett Packard). Additionally, an alliquot from each of the samples showing no measurable turbidity was subcultured on TSA plates (alliquots were diluted to provide fewer than 300 CFU). Colonies that grew on the subculture after overnight incubation were counted and the number of CFU/mL in the samples were calculated. The calculated values were compared to the number of CFU/mL in the original inoculum.
They were also tested for the ability to permeabilize the outer membrane of Gram-negative bacteria, causing sensitization to hydrophobic antibiotics that cannot cross the outer membrane. The permeabilization of the outer membrane was measured using erythromycin and novobiocin.

[5] = tested on: outer membrane of Gram-negative bacteria; assay: Luciferin/luciferase luminescence assay of membrane permeabilization; type: cell-based, E. coli; settings: Escherichia coli; permeabilization of the outer membrane allowing luciferin to enter the cell; read-out: half maximum luminescence
Experimental: Using a technique described by J. M. Shupp, S. E. Travis, L. B. Price, R. F. Shand, P. Keim, RAPID BACTERIAL PERMEABILIZATION REAGENT USEFUL FOR ENZYME ASSAYS, Biotechniques, 1995, vol.
In this assay, E. coli containing an inducible luciferase coding plasmid was incubated with the inducing agent […], then treated with a lysis buffer containing either PMB or one of the cholic acid derivatives, and Triton X-100. Luciferin and ATP were then added. […] The concentrations of the membrane disrupting agents (PMB and the cholic acid derivatives) were varied, and the resulting luminescence was measured.

[6] = ATCC25922, Table 4, E. coli (ATCC 25922)
[7] = ATCC25922, Table 10, Escherichia coli ATCC 25922
[8] = ATCC10798, Table 2, with erythromycin
[9] = ATCC10798, Table 3, with novobiocin

MIC [1]: 3.1 µg/mL (≈ 4.94 µM)
MIC [2, 6]: 25 µg/mL (≈ 39.9 µM)
MIC [2, 7]: 22 µg/mL (≈ 35.1 µM)
Compound: C[C@H](CCCN(C)Cc1ccccc1)[C@H]1CC[C@H]2[C@@H]3[C@H](OCCN)C[C@@H]4C[C@H](OCCN)CC[C@]4(C)[C@H]3C[C@H](OCCN)[C@]12C [Compound 1]
MBC [1]: 5.7 µg/mL (≈ 9.09 µM)
MBC [2, 6]: 40 µg/mL (≈ 63.8 µM)
MBC [2, 7]: 22 µg/mL (≈ 35.1 µM)
FIC [3]: 0.089
concentration required for bacterial growth inhibition [3]: 0.84 µg/mL
MBC [4, 8]: 20 µg/mL
MBC [4, 9]: 34 µg/mL
concentration required to lower the MIC of erythromycin from 70 µg/mL to 1 µg/mL ([4]; with erythromycin): 2 µg/mL

Compound: C[C@H](CCCO)[C@H]1CC[C@H]2[C@@H]3[C@H](OCCCN)C[C@@H]4C[C@H](OCCCN)CC[C@]4(C)[C@H]3C[C@H](OCCCN)[C@]12C [Compound 10]
EC50 [5]: 33 µg/mL (≈ 58.3 µM)
MBC [1]: 9.2 µg/mL (≈ 16.3 µM)
MIC [1]: 2 µg/mL (≈ 3.53 µM)
MBC [2, 7]: 40 µg/mL (≈ 70.7 µM)
MIC [2, 7]: 36 µg/mL (≈ 63.6 µM)
FIC [3]: 0.063
concentration required for bacterial growth inhibition [3]: 0.55 µg/mL
MBC [4, 8]: 50 µg/mL
concentration required to lower the MIC of erythromycin from 70 µg/mL to 1 µg/mL ([4]; with erythromycin): 2 µg/mL
(a) Concentration required to lower the MIC of erythromycin from 70 to 1 µg/mL [4]: 2.0 µg/mL
(b) MBC with 1 µg/mL erythromycin [4]: 50 µg/mL
(d) Concentration required to lower the MIC of novobiocin from >500 to 1 µg/mL [4]: 4.0 µg/mL
FIC^c (FIC values with erythromycin) [4]: 0.070
FIC^c (FIC values with novobiocin) [4]: 0.11

Compound: C[C@H](CCCN(C)Cc1ccccc1)[C@H]1CC[C@H]2[C@@H]3[C@H](OCCCN)C[C@@H]4C[C@H](OCCCN)CC[C@]4(C)[C@H]3C[C@H](OCCCN)[C@]12C [Compound 2]
EC50 [5]: 7 µg/mL (≈ 10.5 µM)
MBC [1]: 4.7 µg/mL (≈ 7.02 µM)
MIC [1]: 1 µg/mL (≈ 1.49 µM)
MBC [2, 6]: 20 µg/mL (≈ 29.9 µM)
MIC [2, 6]: 10 µg/mL (≈ 14.9 µM)
MBC [2, 7]: 6.8 µg/mL (≈ 10.2 µM)
MIC [2, 7]: 5.1 µg/mL (≈ 7.62 µM)
FIC [3]: 0.079
concentration required for bacterial growth inhibition [3]: 0.39 µg/mL
MBC [4, 8]: 10 µg/mL
MBC [4, 9]: 16 µg/mL
concentration required to lower the MIC of erythromycin from 70 µg/mL to 1 µg/mL ([4]; with erythromycin): 1 µg/mL

MIC [1]: 0.55 µg/mL (≈ 0.905 µM)
MIC [2, 7]: 6.6 µg/mL (≈ 10.9 µM)
Compound: CCCOCCC[C@@H](C)[C@H]1CC[C@H]2[C@@H]3[C@H](OCCCN)C[C@@H]4C[C@H](OCCCN)CC[C@]4(C)[C@H]3C[C@H](OCCCN)[C@]12C [Compound 112]
MBC [1]: 4.2 µg/mL (≈ 6.91 µM)
MBC [2, 7]: 7.4 µg/mL (≈ 12.2 µM)
FIC [3]: 0.051
concentration required for bacterial growth inhibition [3]: 0.10 µg/mL
(a) Concentration required to lower the MIC of erythromycin from 70 to 1 µg/mL [4]: 0.4 µg/mL
(b) MBC with 1 µg/mL erythromycin [4]: 4.0 µg/mL
(d) Concentration required to lower the MIC of novobiocin from >500 to 1 µg/mL [4]: 0.8 µg/mL
FIC^c (FIC values with erythromycin) [4]: 0.048
FIC^c (FIC values with novobiocin) [4]: 0.085

MIC [1]: 0.6 µg/mL (≈ 0.755 µM)
MIC [2, 6]: 2 µg/mL (≈ 2.52 µM)
MIC [2, 7]: 1.4 µg/mL (≈ 1.76 µM)
Compound: C[C@H](CCCN(C)Cc1ccccc1)[C@H]1CC[C@H]2[C@@H]3[C@H](OCCCNC(=N)N)C[C@@H]4C[C@H](OCCCNC(=N)N)CC[C@]4(C)[C@H]3C[C@H](OCCCNC(=N)N)[C@]12C [Compound 5]
MBC [1]: 3.2 µg/mL (≈ 4.02 µM)
MBC [2, 6]: 4 µg/mL (≈ 5.03 µM)
MBC [2, 7]: 3.8 µg/mL (≈ 4.78 µM)
MBC [4, 8]: 3 µg/mL
MBC [4, 9]: 4 µg/mL
concentration required to lower the MIC of erythromycin from 70 µg/mL to 1 µg/mL ([4]; with erythromycin): 1 µg/mL

MIC [1]: 8.6 µg/mL (≈ 17.3 µM)
MIC [2, 7]: 80 µg/mL (≈ 161 µM)
Compound: C[C@]12CC[C@@H](OCCCN)C[C@H]1C[C@@H](OCCCN)[C@@H]1[C@@H]2C[C@H](OCCCN)[C@]2(C)[C@@H](O)CC[C@@H]12 [Compound 106]
MBC [1]: 54 µg/mL (≈ 109 µM)
MBC [2, 7]: 90 µg/mL (≈ 182 µM)
FIC [3]: 0.064
concentration required for bacterial growth inhibition [3]: 1.4 µg/mL
(a) Concentration required to lower the MIC of erythromycin from 70 to 1 µg/mL [4]: 30 µg/mL
(b) MBC with 1 µg/mL erythromycin [4]: 160 µg/mL
(d) Concentration required to lower the MIC of novobiocin from >500 to 1 µg/mL [4]: 50 µg/mL
FIC^c (FIC values with erythromycin) [4]: 0.23
FIC^c (FIC values with novobiocin) [4]: 0.36
